# US9597407B2, “Targeted antimicrobial moieties” (C3 Jian, Inc., priority 2009, dated 2017)
# “Also recorded” adds a separate entry of the source. Square brackets hold non-standard residues; d marks the D form. Ends that are not written are not given here. dOrn = NCCC[C@@H](N)C(=O)O; Orn = NCCC[C@H](N)C(=O)O
# Test system: bacteria
# Experiment: Binding of targeting peptides to microorganisms (Table 3)
# Settings: data not shown
row,Substance,bacterial binding
1,DAANEA-GGG [BL-1],no bacterial binding

# Same assay, conditions: microorganism bound by the targeting peptide; binding in aqueous buffers chosen by peptide solubility, preferably 1x PBS
row,Substance,Target(s)
1,AIEGVIKKGACFKLLRHEMF [PF-167],S. epidermidis and E. coli and C. albicans and MRSA and C. jeikeium and C. jejuni
2,PF-163 (TSWLRAAERQEIGEPTKTFGEKTTSL; Peptide with targeting and/or antimicrobial activity),S. epidermidis
3,PF-372 (KKQDKRIEDKYKRMKKGD; Peptide with targeting and/or antimicrobial activity),C. jeikeium; also recorded: C. jejuni
4,PF-130 (LQRSDEESMPRRHEKYS; Peptide with targeting and/or antimicrobial activity),E. faecalis; also recorded: C. jeikeium; also recorded: C. jejuni
5,PF-348 (ESASAAEWYNPNMNVKKAICMG; Peptide with targeting and/or antimicrobial activity),B. subtilis; also recorded: E. coli; also recorded: P. aeruginosa; also recorded: C. albicans; also recorded: E. faecalis; also recorded: C. jejuni
6,PF-266 (DQEKKNKTEESTEQ; Peptide with targeting and/or antimicrobial activity),S. mutans
7,PF-201 (GCRPASLSDADPDGR; Peptide with targeting and/or antimicrobial activity),S. epidermidis; also recorded: M. luteus; also recorded: E. coli; also recorded: C. albicans; also recorded: E. faecalis; also recorded: C. jeikeium; also recorded: C. jejuni
8,PF-299 (LATKLKYEKEHKKM; Peptide with targeting and/or antimicrobial activity),B. subtilis

# Same assay, conditions: microorganism the targeting peptide binds; binding in aqueous buffers that varied with peptide solubility, preferably 1x PBS
row,Substance,Target(s)
1,1T-250 (LVQGDTILIENHVGTPVKDDGKDCLIIREADVLAVVND; Peptide with targeting and/or antimicrobial activity) [Peptide 1T-250],S. mitis; also recorded: S. mutans; also recorded: S. oralis
2,Py Pf 12 ([dS]KG[Orn][dS]SGK[dOrn]ES; bridge (positions not given here); not fully specified (bridges)),P. fluorescens
3,1T-304 (STAGEASRRTASEASRRTAAKLRG; Peptide with targeting and/or antimicrobial activity) [Peptide 1T-304],P. gingivalis
4,1T-237 (EDPVPNHFTLRRNKKEKPSKS; Peptide with targeting and/or antimicrobial activity) [Peptide 1T-237],S. sanguinis
5,TT-310 (TKLKKNNKLLSAKKENTLHTKDK; Peptide with targeting and/or antimicrobial activity),F. nucleatum
6,1T-198 (MPVSKKRYMLSSAYATALGICYGQVATDEKESEITAIPDLLDYLSVEEYLL; Peptide with targeting and/or antimicrobial activity) [Peptide 1T-198],P. gingivalis; also recorded: S. epidermidis; also recorded: S. gordonii; also recorded: S. mitis; also recorded: S. mutans; also recorded: S. oralis; also recorded: S. sanguinis
7,1T-270 (VHEFDIQKILQNR; Peptide with targeting and/or antimicrobial activity) [Peptide 1T-270],F. nucleatum; also recorded: S. mutans; also recorded: S. oralis; also recorded: S. sanguinis
8,TT-307 (NGDKKAKEELDKWDEVIKELNIQF; Peptide with targeting and/or antimicrobial activity),F. nucleatum
9,PF-050 (SYYLKRREEKGK; Peptide with targeting and/or antimicrobial activity),S. epidermidis; also recorded: M. luteus; also recorded: E. coli; also recorded: C. jeikeium
10,PF-060 (HSSHL; Peptide with targeting and/or antimicrobial activity),E. coli; also recorded: C. albicans; also recorded: C. jeikeium
11,1T-289 (EPSADIYLSAKDTKT; Peptide with targeting and/or antimicrobial activity) [Peptide 1T-289],F. nucleatum; also recorded: P. gingivalis; also recorded: S. gordonii; also recorded: S. mitis; also recorded: S. mutans; also recorded: S. oralis; also recorded: S. sanguinis

# Same assay, conditions: peptide binding in aqueous buffers that varied depending on peptide solubility; preferably 1x PBS
Substance,Target(s) (microorganism bound by the targeting peptide),Target(s) (microorganisms bound by the targeting peptide)
PF-671 (TVSAFRTVH; Peptide with targeting and/or antimicrobial activity),S. mutans; also recorded: E. coli,–
PF-463 (MVILVFSLIFIFTDNYLVYQSKSIKEDVMI; Peptide with targeting and/or antimicrobial activity),–,S. epidermidis; also recorded: E. coli; also recorded: P. aeruginosa; also recorded: C. albicans; also recorded: S. pneumoniae; also recorded: E. faecalis; also recorded: M. smegmatis
PF-505 (GYTKDPGTGI; Peptide with targeting and/or antimicrobial activity),–,S. mutans
PF-786 (LSERERRRLKRGII; Peptide with targeting and/or antimicrobial activity),Mycobacteria spp.,–
PF-S026 (TELKYNGEEYLLLTQRDILAVIEK; Peptide with targeting and/or antimicrobial activity),S. epidermidis and MRSA and C. jeikeium,–
PF-648 (ARRYPAAGS; Peptide with targeting and/or antimicrobial activity),S. mutans; also recorded: E. coli,–
PF-400 (VIAWKFRNKFENSGV; Peptide with targeting and/or antimicrobial activity),–,S. epidermidis; also recorded: E. coli; also recorded: S. pneumoniae; also recorded: E. faecalis; also recorded: C. jeikeium
PF-717 (PQSEVTFENIYAPKANGGGLYGI; Peptide with targeting and/or antimicrobial activity),E. coli,–
PF-C259 (AEIQPHCLSVL; Peptide with targeting and/or antimicrobial activity),F. nucleatum; also recorded: S. mutans,–
PF-676 (AEYRGL; Peptide with targeting and/or antimicrobial activity),S. mutans; also recorded: E. coli,–
PF-S029 (TSDTQSQSPWLFDNADIVNIYPVQLMHSSDND; Peptide with targeting and/or antimicrobial activity),M. luteus; also recorded: P. mirabilis; also recorded: E. coli; also recorded: C. albicans; also recorded: C. jeikeium; also recorded: C. jejuni,–
PF-510 (WYLYKKQSNQNDRGIPK; Peptide with targeting and/or antimicrobial activity),–,S. mutans; also recorded: E. coli
PF-502 (NKGKQMQDQTGKQPIVDNG; Peptide with targeting and/or antimicrobial activity),–,S. mutans

# Same assay, conditions: peptide binding in aqueous buffers varied by peptide solubility; preferably 1x PBS
row,Substance,Target(s) (microorganism bound by the targeting peptide)
1,1T-100 (LDPLEPRIAPPGDRSHQGAPACHRDPLRGRSARDAER; Peptide with targeting and/or antimicrobial activity) [Peptide 1T-100],S. gordonii; also recorded: S. mitis; also recorded: S. mutans
2,1T-119 (SPATQKAPTRAQPSRAPVQDCGDGRPTAAPDDVERLSPR; Peptide with targeting and/or antimicrobial activity) [Peptide 1T-119],S. gordonii; also recorded: S. mitis; also recorded: S. mutans; also recorded: S. oralis
3,1T-26 (LTILPTTFFAIIVPILAVAFIAYSGFKIKGIVEHKDQW; Peptide with targeting and/or antimicrobial activity) [Peptide 1T-26],S. mutans; also recorded: S. aureus; also recorded: S. epidermidis; also recorded: C. jeikeium; also recorded: C. xerosis; also recorded: C. striatum; also recorded: P. aeruginosa
4,1T-67 (GQRQRLTCGRVSGCSEGPSREAAR; Peptide with targeting and/or antimicrobial activity) [Peptide 1T-67],S. aureus; also recorded: S. epidermidis; also recorded: C. jeikeium; also recorded: C. xerosis; also recorded: C. striatum; also recorded: P. aeruginosa
5,1T-4 (LDAYGELVGGN; Peptide with targeting and/or antimicrobial activity) [Peptide 1T-4],S. gordonii; also recorded: S. sanguinis; also recorded: S. oxalis; also recorded: V. atypica; also recorded: L. casei; also recorded: S. mutans
6,1T-104 (RAVAAHLQGRHHGHQVRRQRHGQR; Peptide with targeting and/or antimicrobial activity) [Peptide 1T-104],S. mitis
7,1T-68 (GGTKEIVYQRG; Peptide with targeting and/or antimicrobial activity) [Peptide 1T-68],S. mutans; also recorded: S. aureus; also recorded: C. jeikeium; also recorded: C. xerosis; also recorded: C. striatum; also recorded: P. aeruginosa
8,1T-13 (FRSPCINNNSLQPPGVYPAR; Peptide with targeting and/or antimicrobial activity) [Peptide 1T-13],S. aureus; also recorded: S. epidermidis; also recorded: P. aeruginosa
9,1T-66 (DTDCLSRAYAQRIDELDKQYAGIDKPL; Peptide with targeting and/or antimicrobial activity) [Peptide 1T-66],S. mutans; also recorded: S. aureus; also recorded: S. epidermidis; also recorded: C. jeikeium; also recorded: C. xerosis; also recorded: C. striatum; also recorded: P. aeruginosa
10,1T-87 (EAVGQDLVDAHHP; Peptide with targeting and/or antimicrobial activity) [Peptide 1T-87],S. mitis; also recorded: S. mutans; also recorded: S. oralis
11,1T-24 (EEAEEKLAEVSQAVKRLVR; Peptide with targeting and/or antimicrobial activity) [Peptide 1T-24],P. aeruginosa
